Results as given in US11020399B2, “Intermediates useful in the synthesis of compounds as modulators of protein kinases” (Rhizen Pharmaceuticals SA, priority 2011, dated 2021).

Experiments:
PI3kβ = PI3kβ (Homo sapiens, UniProt P42338); assay: Fluorescent (HTRF) determination of PI3 kinase enzyme activity, PI3Kβ; assay type: biochemical
How it was run: (§1)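 HTRF detection of PIP3 from PIP2 (1.38 μM in reaction mix) with 10 mM MgCl2, 5 mM DTT; compound preincubated with enzyme 10 min, then ATP (400 μM addition) 30 min at room temperature. Percent inhibition versus blank and enzyme controls at 1 μM (α, β) and 0.3 or 0.1 μM (γ, δ); IC50 also fitted.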

PI3kα = PI3kα (Homo sapiens, UniProt P42336); assay: Fluorescent (HTRF) determination of PI3 kinase enzyme activity, PI3Kα; assay type: biochemical
How it was run: as §1

PI3kγ = PI3kγ (Homo sapiens, UniProt P48736); assay: Fluorescent (HTRF) determination of PI3 kinase enzyme activity, PI3Kγ; assay type: biochemical; conditions: for inhibition at 0.1 µM / % inhibition (PI3kγ) 100 nM: 100 nM (Examples 60-137); for % inhibition (PI3kγ) 100 nM: 0.1 µM; for inhibition at 0.3 µM: 300 nM (Examples 1-59)
How it was run: as §1

PI3kδ = PI3kδ (Homo sapiens, UniProt O00329); assay: Fluorescent (HTRF) determination of PI3 kinase enzyme activity, PI3Kδ; assay type: biochemical; conditions: for inhibition at 0.1 µM / % inhibition (PI3kδ) 100 nM: 100 nM (Examples 60-137); for % inhibition (PI3kδ) 100 nM: 0.1 µM; for inhibition at 0.3 µM: 300 nM (Examples 1-59)
How it was run: as §1

Sequence of PI3kγ (P48736 whole entry): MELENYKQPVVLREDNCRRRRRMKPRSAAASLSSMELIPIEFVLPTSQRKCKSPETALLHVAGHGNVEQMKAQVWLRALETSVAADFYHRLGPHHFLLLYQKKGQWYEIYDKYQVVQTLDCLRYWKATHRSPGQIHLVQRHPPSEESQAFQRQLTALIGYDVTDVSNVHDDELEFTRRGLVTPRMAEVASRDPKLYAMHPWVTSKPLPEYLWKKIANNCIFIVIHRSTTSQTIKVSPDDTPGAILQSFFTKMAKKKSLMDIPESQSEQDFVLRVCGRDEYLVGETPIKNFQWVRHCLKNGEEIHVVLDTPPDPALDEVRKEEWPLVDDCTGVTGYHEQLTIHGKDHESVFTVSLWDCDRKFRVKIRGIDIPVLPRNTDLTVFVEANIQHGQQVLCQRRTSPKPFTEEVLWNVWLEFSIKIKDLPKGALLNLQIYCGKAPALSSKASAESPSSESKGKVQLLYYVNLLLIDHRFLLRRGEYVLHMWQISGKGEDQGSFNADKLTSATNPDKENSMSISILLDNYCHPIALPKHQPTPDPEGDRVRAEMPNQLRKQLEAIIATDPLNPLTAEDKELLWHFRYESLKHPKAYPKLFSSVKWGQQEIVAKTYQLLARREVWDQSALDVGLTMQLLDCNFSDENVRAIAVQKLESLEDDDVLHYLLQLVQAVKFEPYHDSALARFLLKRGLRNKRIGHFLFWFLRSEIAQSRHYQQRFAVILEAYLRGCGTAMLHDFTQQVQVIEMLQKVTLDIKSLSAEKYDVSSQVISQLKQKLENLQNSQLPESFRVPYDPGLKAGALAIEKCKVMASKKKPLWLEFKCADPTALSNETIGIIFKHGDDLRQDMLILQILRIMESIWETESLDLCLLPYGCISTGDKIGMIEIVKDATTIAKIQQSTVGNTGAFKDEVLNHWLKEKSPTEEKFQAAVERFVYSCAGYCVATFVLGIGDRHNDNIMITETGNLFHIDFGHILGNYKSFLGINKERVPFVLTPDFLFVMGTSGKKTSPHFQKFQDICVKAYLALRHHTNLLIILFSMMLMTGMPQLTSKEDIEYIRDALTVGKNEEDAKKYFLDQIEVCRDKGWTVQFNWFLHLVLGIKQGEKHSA
Sequence of PI3kα (P42336 whole entry): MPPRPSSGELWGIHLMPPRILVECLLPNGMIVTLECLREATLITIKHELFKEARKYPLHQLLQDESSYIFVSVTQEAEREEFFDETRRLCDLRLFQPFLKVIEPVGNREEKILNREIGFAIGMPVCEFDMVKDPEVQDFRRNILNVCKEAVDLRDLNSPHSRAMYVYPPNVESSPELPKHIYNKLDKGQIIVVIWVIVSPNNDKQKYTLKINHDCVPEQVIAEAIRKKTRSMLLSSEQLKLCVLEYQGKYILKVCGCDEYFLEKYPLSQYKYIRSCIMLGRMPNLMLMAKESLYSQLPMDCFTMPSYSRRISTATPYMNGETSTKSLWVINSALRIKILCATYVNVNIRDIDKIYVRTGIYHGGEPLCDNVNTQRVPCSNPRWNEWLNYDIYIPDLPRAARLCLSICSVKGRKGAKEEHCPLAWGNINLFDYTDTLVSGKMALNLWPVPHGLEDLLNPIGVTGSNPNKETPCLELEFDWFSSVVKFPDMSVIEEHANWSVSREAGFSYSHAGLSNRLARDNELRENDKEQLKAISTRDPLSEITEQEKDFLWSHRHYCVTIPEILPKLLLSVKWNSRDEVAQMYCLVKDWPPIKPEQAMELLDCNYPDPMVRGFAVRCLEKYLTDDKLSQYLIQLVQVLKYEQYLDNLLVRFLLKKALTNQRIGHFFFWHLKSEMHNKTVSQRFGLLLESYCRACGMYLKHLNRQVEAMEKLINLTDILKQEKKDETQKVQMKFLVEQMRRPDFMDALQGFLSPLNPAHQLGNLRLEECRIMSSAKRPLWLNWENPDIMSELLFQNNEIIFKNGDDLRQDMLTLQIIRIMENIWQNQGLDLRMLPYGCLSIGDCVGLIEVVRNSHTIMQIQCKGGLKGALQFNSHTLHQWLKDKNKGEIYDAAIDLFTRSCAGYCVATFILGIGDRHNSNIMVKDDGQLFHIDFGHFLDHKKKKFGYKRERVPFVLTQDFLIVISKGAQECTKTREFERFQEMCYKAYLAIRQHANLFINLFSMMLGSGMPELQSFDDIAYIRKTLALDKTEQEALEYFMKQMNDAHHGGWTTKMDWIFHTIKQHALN
Sequence of PI3kα (P27986 whole entry partner): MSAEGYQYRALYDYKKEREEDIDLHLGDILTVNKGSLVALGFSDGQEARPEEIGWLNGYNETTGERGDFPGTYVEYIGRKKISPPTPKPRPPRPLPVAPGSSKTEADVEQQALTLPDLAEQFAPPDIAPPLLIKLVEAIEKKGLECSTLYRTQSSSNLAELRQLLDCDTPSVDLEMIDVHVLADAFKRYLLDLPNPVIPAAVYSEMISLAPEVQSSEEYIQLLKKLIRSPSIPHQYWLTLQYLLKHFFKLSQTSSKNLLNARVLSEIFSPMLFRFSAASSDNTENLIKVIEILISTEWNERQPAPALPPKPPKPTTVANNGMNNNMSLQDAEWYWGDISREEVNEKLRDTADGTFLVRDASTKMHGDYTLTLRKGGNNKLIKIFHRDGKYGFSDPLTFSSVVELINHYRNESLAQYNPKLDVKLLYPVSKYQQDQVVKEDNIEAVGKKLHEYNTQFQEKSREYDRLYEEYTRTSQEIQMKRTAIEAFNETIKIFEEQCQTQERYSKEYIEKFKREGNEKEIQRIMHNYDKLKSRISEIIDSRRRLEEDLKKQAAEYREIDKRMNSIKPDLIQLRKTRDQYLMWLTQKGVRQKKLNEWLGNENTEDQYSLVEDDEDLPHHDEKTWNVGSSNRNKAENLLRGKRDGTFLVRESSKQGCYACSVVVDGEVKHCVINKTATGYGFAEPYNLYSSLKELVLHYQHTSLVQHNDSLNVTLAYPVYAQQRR
Sequence of PI3kδ (O00329 whole entry): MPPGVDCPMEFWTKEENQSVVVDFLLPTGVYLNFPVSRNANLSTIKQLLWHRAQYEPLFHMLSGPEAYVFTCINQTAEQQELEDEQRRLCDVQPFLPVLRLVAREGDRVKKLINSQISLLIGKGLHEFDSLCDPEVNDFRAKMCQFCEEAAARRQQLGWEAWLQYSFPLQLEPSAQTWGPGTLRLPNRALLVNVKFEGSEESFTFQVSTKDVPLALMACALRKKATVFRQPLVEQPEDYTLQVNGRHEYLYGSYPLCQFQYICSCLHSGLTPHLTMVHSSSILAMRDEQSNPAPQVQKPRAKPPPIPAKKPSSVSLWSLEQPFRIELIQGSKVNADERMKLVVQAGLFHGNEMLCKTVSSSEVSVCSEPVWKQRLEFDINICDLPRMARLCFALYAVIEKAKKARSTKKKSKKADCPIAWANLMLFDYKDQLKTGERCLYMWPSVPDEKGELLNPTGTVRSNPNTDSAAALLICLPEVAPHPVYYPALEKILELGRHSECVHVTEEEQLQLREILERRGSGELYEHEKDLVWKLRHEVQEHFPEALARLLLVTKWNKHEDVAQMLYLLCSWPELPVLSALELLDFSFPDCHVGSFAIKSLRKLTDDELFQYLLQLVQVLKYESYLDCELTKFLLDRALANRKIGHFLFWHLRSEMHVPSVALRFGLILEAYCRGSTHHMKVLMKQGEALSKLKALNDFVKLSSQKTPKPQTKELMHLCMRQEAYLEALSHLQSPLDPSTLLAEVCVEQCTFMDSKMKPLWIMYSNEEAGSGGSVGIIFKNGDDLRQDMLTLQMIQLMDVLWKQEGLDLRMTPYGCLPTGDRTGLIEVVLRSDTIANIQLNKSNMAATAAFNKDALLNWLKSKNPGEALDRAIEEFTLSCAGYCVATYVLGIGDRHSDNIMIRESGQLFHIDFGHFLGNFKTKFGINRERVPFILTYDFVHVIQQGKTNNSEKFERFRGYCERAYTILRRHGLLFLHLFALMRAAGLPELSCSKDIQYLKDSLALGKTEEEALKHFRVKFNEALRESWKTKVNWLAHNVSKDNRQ
Sequence of PI3kδ (P27986 whole entry partner): as the sequence (P27986 whole entry partner) above
Sequence of PI3kβ (P42338 whole entry): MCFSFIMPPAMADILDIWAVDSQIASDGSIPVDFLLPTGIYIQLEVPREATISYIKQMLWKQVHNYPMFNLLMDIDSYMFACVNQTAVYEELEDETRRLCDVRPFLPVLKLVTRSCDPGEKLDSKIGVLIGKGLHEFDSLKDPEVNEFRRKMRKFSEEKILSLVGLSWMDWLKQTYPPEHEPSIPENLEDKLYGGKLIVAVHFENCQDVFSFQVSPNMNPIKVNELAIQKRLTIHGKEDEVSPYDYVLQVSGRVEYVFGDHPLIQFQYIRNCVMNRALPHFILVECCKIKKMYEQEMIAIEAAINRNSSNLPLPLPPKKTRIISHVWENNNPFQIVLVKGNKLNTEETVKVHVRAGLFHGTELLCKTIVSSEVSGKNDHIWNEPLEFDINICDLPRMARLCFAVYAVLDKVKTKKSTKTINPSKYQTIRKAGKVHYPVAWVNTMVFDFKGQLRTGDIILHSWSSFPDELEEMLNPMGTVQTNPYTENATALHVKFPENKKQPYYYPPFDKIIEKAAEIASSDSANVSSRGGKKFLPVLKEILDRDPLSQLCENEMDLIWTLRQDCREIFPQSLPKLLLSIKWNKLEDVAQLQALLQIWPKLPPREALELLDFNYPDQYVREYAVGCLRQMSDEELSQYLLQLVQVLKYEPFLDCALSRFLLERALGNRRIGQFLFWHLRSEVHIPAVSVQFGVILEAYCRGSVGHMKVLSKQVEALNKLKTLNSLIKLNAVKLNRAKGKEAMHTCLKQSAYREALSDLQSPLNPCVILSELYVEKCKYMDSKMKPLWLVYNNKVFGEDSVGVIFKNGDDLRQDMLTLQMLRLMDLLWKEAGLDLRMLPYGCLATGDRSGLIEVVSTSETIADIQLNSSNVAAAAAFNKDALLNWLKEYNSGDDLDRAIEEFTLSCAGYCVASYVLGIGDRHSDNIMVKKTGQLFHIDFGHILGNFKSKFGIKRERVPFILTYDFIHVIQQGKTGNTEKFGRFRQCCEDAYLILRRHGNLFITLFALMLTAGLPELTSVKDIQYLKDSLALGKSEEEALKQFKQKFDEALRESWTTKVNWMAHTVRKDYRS
Sequence of PI3kβ (P27986 whole entry partner): as the sequence (P27986 whole entry partner) above

Row | Structure (SMILES) | melting point [°C] | inhibition at 0.1 µM (PI3kγ) [%] | inhibition at 0.1 µM (PI3kδ) [%] | inhibition at 1 µM (PI3kβ) [%] | inhibition at 1 µM (PI3kα) [%] | inhibition at 0.3 µM (PI3kγ) [%] | inhibition at 0.3 µM (PI3kδ) [%] | other results
1 | CC(c1oc2cccc(F)c2c(=O)c1-c1cccc(F)c1)n1nc(-c2ccc(N3CCOCC3)c(F)c2)c2c(N)ncnc21 (single isomer, unassigned) [Example 59] | 242 to 245 | – | – | 25 to 50 | – | – | – | IC50 (PI3kβ): > 500 nM; IC50 (PI3kα; numeric values): > 10000 nM; IC50 (PI3kγ): ≤ 50 nM; IC50 (PI3kδ): 100 to 300 nM
2 | CC(c1oc2cccc(F)c2c(=O)c1-c1cccc(F)c1)n1nc(-c2ccc(OC3COC3)c(F)c2)c2c(N)ncnc21 (stereo not shown) [Example 46, 2-(1-(4-amino-3-(3-fluoro-4-(oxetan-3-yloxy)phenyl)-1H-pyrazolo[3,4-d]pyrimidin-1-yl)ethyl)-5-fluoro-3-(3-fluorophenyl)-4H-chromen-4-one] | 235 to 237 | – | – | 50 to 75 | 0 to 25 | 50 to 75 | 25 to 50 | –
3 | CC(C)Cc1ccc(-c2nn(C(C)c3oc4cccc(F)c4c(=O)c3-c3cccc(F)c3)c3ncnc(N)c23)cc1 (stereo not shown) [Example 49, 2-(1-(4-amino-3-(4-isobutylphenyl)-1H-pyrazolo[3,4-d]pyrimidin-1-yl)ethyl)-5-fluoro-3-(3-fluorophenyl)-4H-chromen-4-one] | 221 to 223 | – | – | 50 to 75 | 50 to 75 | 50 to 75 | 50 to 75 | –
4 | CNS(=O)(=O)c1ccc(-c2nn(C(C)c3oc4cccc(F)c4c(=O)c3-c3cccc(F)c3)c3ncnc(N)c23)cc1 (stereo not shown) [Example 52, 4-(4-amino-1-(1-(5-fluoro-3-(3-fluorophenyl)-4-oxo-4H-chromen-2-yl)ethyl)-1H-pyrazolo[3,4-d]pyrimidin-3-yl)-N-methylbenzenesulfonamide] | 175 to 178 | – | – | 50 to 75 | 25 to 50 | 50 to 75 | 50 to 75 | –
5 | CNc1nnc(-c2ccc(-c3nn(C(C)c4oc5cccc(F)c5c(=O)c4-c4cccc(F)c4)c4ncnc(N)c34)cc2)s1 (stereo not shown) [Example 54, 2-(1-(4-amino-3-(4-(5-(methylamino)-1,3,4-thiadiazol-2-yl)phenyl)-1H-pyrazolo[3,4-d]pyrimidin-1-yl)ethyl)-5-fluoro-3-(3-fluorophenyl)-4H-chromen-4-one] | 199 to 201 | – | – | 25 to 50 | 25 to 50 | 50 to 75 | 50 to 75 | –
6 | CC(C)NS(=O)(=O)c1ccc(-c2nn(C(C)c3oc4cccc(F)c4c(=O)c3-c3cccc(F)c3)c3ncnc(N)c23)cc1 (stereo not shown) [Example 56, 4-(4-amino-1-(1-(5-fluoro-3-(3-fluorophenyl)-4-oxo-4H-chromen-2-yl)ethyl)-1H-pyrazolo[3,4-d]pyrimidin-3-yl)-N-isopropylbenzenesulfonamide] | 211 to 214 | – | – | 50 to 75 | 0 to 25 | 50 to 75 | 0 to 25 | –
7 | CC(C)Oc1ncc(-c2nn(C(C)c3oc4cccc(F)c4c(=O)c3-c3cccc(F)c3)c3ncnc(N)c23)cn1 (stereo not shown) [Example 58, 2-(1-(4-amino-3-(2-isopropoxypyrimidin-5-yl)-1H-pyrazolo[3,4-d]pyrimidin-1-yl)ethyl)-5-fluoro-3-(3-fluorophenyl)-4H-chromen-4-one] | 230 to 232 | – | – | 50 to 75 | 0 to 25 | 25 to 50 | 50 to 75 | –
8 | CC(c1oc2cccc(F)c2c(=O)c1-c1cccc(F)c1)n1nc(-c2ccc(S(N)(=O)=O)cc2)c2c(N)ncnc21 (stereo not shown) [Example 60, 4-(4-amino-1-(1-(5-fluoro-3-(3-fluorophenyl)-4-oxo-4H-chromen-2-yl)ethyl)-1H-pyrazolo[3,4-d]pyrimidin-3-yl)benzenesulfonamide] | 232 to 235 | 25 to 50 | 25 to 50 | 25 to 50 | 0 to 25 | – | – | –
9 | COC(=O)c1cc(-c2nn(C(C)c3oc4cccc(F)c4c(=O)c3-c3cccc(F)c3)c3ncnc(N)c23)cs1 (stereo not shown) [Example 61, methyl 4-(4-amino-1-(1-(5-fluoro-3-(3-fluorophenyl)-4-oxo-4H-chromen-2-yl)ethyl)-1H-pyrazolo[3,4-d]pyrimidin-3-yl)thiophene-2-carboxylate] | 227 to 230 | 50 to 75 | 25 to 50 | 25 to 50 | 25 to 50 | – | – | –

The next lines start with results.

Row | melting point [°C] | inhibition at 0.1 µM (PI3kγ) [%] | inhibition at 0.1 µM (PI3kδ) [%] | inhibition at 1 µM (PI3kβ) [%] | inhibition at 1 µM (PI3kα) [%] | inhibition at 0.3 µM (PI3kγ) [%] | inhibition at 0.3 µM (PI3kδ) [%] | Structure (SMILES) | other results
10 | 243 to 246 | 25 to 50 | 25 to 50 | – | – | – | – | CC(c1oc2cccc(F)c2c(=O)c1-c1cccc(F)c1)n1nc(-c2ccc(N3CCOCC3)c(F)c2)c2c(N)ncnc21 (racemic) [Example 70, (R)/(S)-2-(1-(4-amino-3-(3-fluoro-4-morpholinophenyl)-1H-pyrazolo[3,4-d]pyrimidin-1-yl)ethyl)-5-fluoro-3-(3-fluorophenyl)-4H-chromen-4-one] | % inhibition (PI3kβ) 1 uM (PI3kβ): C (C=>25 to 50%); % inhibition (PI3kα) 1 uM (PI3kα): D (D=0 to 25%)
11 | 187 to 189 | – | – | – | – | – | – | CC(c1oc2cccc(F)c2c(=O)c1-c1cccc(F)c1)n1cnc2c(N(C)C)ncnc21 (racemic) [Example 129, (S)/(R)-2-(1-(6-(dimethylamino)-9H-purin-9-yl)ethyl)-5-fluoro-3-(3-fluorophenyl)-4H-chromen-4-one] | % inhibition (PI3kβ) 1 uM (PI3kβ): C (C=>25 to 50%); % inhibition (PI3kα) 1 uM (PI3kα): D (D=0 to 25%); % inhibition (PI3kγ) 100 nM (PI3kγ): C (C=>25 to 50%); % inhibition (PI3kδ) 100 nM (PI3kδ): D (D=0 to 25%)
12 | 260 to 262 | 0 to 25 | 50 to 75 | 50 to 75 | 0 to 25 | – | – | CC(c1oc2cccc(F)c2c(=O)c1-c1cccc(F)c1)n1nc(-c2ccc(N3CCOCC3)c(Cl)c2)c2c(N)ncnc21 (single isomer, unassigned) [Example 127] | –
13 | 208 to 210 | 0 to 25 | 25 to 50 | 50 to 75 | 0 to 25 | – | – | Cc1cccc2oc([C@H](C)n3nc(-c4ccc(OC(C)C)c(F)c4)c4c(N)ncnc43)c(-c3ccccc3)c(=O)c12 (single isomer, unassigned) [Example 137] | –
14 | 194 to 197 | – | – | – | 25 to 50 | – | – | CC(Nc1ncnc2[nH]cnc12)c1oc2cccc(F)c2c(=O)c1-c1cccc(F)c1 (single isomer, unassigned; (+)) [Example 68, (+)-2-(1-(9H-purin-6-ylamino)ethyl)-5-fluoro-3-(3-fluorophenyl)-4H-chromen-4-one] | % inhibition (PI3kβ) 1 uM (PI3kβ): B (B=>50 to 75%); % inhibition (PI3kγ) 100 nM (PI3kγ): B (B=>50 to 75%); % inhibition (PI3kδ) 100 nM (PI3kδ): C (C=>25 to 50%)
15 | 205 to 208 | – | 50 to 75 | 25 to 50 | 0 to 25 | – | – | CC(Nc1ncnc2[nH]cnc12)c1oc2cccc(F)c2c(=O)c1-c1cccc(F)c1 (single isomer, unassigned; (-)) [Example 78, (−)-2-(1-(9H-purin-6-ylamino)ethyl)-5-fluoro-3-(3-fluorophenyl)-4H-chromen-4-one] | IC50 (PI3kδ): 50 to 100 nM
16 | 223 to 226 | 25 to 50 | 50 to 75 | 50 to 75 | 0 to 25 | – | – | Cc1ccc(-c2nn(C(C)c3oc4cccc(F)c4c(=O)c3-c3cccc(F)c3)c3ncnc(N)c23)s1 (stereo not shown) [Example 62, 2-(1-(4-amino-3-(5-methylthiophen-2-yl)-1H-pyrazolo[3,4-d]pyrimidin-1-yl)ethyl)-5-fluoro-3-(3-fluorophenyl)-4H-chromen-4-one] | –
17 | 258 to 260 | 25 to 50 | 50 to 75 | 25 to 50 | – | – | – | COC(=O)c1ccc(-c2nn(C(C)c3oc4cccc(F)c4c(=O)c3-c3cccc(F)c3)c3ncnc(N)c23)c(F)c1 (stereo not shown) [Example 64, methyl 4-(4-amino-1-(1-(5-fluoro-3-(3-fluorophenyl)-4-oxo-4H-chromen-2-yl)ethyl)-1H-pyrazolo[3,4-d]pyrimidin-3-yl)-3-fluorobenzoate] | –
18 | 247 to 249 | – | – | – | – | – | – | CC(Nc1ncnc2[nH]cnc12)c1oc2cccc(F)c2c(=O)c1-c1cccc(F)c1 (stereo not shown) [Example 69, 2-(1-(9H-purin-6-ylamino)ethyl)-5-fluoro-3-(3-fluorophenyl)-4H-chromen-4-one] | % inhibition (PI3kβ) 1 uM (PI3kβ): C (C=>25 to 50%); % inhibition (PI3kγ) 100 nM (PI3kγ): A (A=>75 to 100%); % inhibition (PI3kδ) 100 nM (PI3kδ): B (B=>50 to 75%)
19 | 165 to 167 | 25 to 50 | 50 to 75 | – | 0 to 25 | – | – | CC(C)C(=O)Nc1ccc(-c2nn(C(C)c3oc4cccc(F)c4c(=O)c3-c3ccc(F)cc3)c3ncnc(N4CCOCC4)c23)cc1F (stereo not shown) [Example 86, N-(2-fluoro-4-(1-(1-(5-fluoro-3-(4-fluorophenyl)-4-oxo-4H-chromen-2-yl)ethyl)-4-morpholino-1H-pyrazolo[3,4-d]pyrimidin-3-yl)phenyl)isobutyramide] | IC50 (PI3kγ): > 500 nM
20 | 199 to 201 | – | 25 to 50 | – | 0 to 25 | – | – | CC(c1oc2cccc(F)c2c(=O)c1-c1cccc(F)c1)n1cnc2c(N3CCN(C)CC3)ncnc21 (stereo not shown) [Example 125, 5-fluoro-3-(3-fluorophenyl)-2-(1-(6-(4-methylpiperazin-1-yl)-9H-purin-9-yl)ethyl)-4H-chromen-4-one] | –
